According to patent publication US20150147403A1, “DERMATOLOGICAL COMPOSITION COMPRISING OLEOSOMES AND RETINOIDS, PROCESS FOR PREPARING THE SAME AND USE THEREOF” (GALDERMA RESEARCH & DEVELOPMENT, priority 2012, published 2015):

Columns and labels:
Type in all cases: physicochemical
[1] = Stability of compound A in solvents (HPLC-UV); conditions: RT / 40° C.
Procedure: (§1) The object of this preformulation study is to identify lipophilic and hydrophilic solvents in which compound A is soluble, and in which it is chemically stable.
The stability of the active agent was evaluated by liquid chromatography coupled to a UV detector (HPLC-UV).

[2] = Stability study on compositions 1′ and 2: assay of compound A by HPLC; conditions: under all the temperature conditions (4° C., RT, 40° C.); dissolved in the aqueous phase or in the oily liquid globules
Procedure: Composition 1′ of Example 2 and composition 2 of Example 3 were placed under various stability conditions: 4° C., room temperature and 40° C., for 3 months.
Compound A was assayed by HPLC. The results are expressed in mg/g.

[3] = Solubility of compound A in various oily and aqueous solvents
Text: as §1

[4] = in Caprylic/capric acid triglycerides (Miglyol 812N)
[5] = in PPG-15 stearyl ether (Arlamol E PSE15)
[6] = in Propylene glycol / absolute ethanol (20/80)

Stability ([1]; in Absolute ethanol): 3 months RT / 40 °C | Stability [1, 4]: 6 months RT / 40 °C | Stability [1, 5]: 6 months RT / 40 °C | Stability ([1]; in Phenoxyethanol): 6 months RT / 40 °C | Stability [1, 6]: 6 months RT / 40 °C | Stability ([1]; in Propylene glycol): 3 months RT / 40 °C | Chemical stability of compound A in the compositions [2]: 3 months | Maximum solubility (% m/m) ([3]; in Absolute ethanol): 0.92 % m/m | Maximum solubility (% m/m) [3, 4]: 0.019 % m/m | Maximum solubility (% m/m) [3, 5]: 0.292 % m/m | Maximum solubility (% m/m) ([3]; in Phenoxyethanol): 1.957 % m/m | Maximum solubility (% m/m) ([3]; in Propylene glycol): 0.11 % m/m | Maximum solubility (% m/m) [3, 6]: 1.08 % m/m
SMILES: CC(C)(C)c1cc(-c2cc(-c3ccc(C(=O)O)cc3)ccc2OCCO)ccc1N1CCCC1 [Compound A, 3″-tert-Butyl-4′-(2-hydroxyethoxy)-4″-pyrrolidin-1-yl-[1,1′;3′,1″]-terphenyl-4-carboxylic acid]
